Results: ChEMBL document CHEMBL1152904, “Synthesis and characterization of a BODIPY-labeled derivative of Soraphen A that binds to acetyl-CoA carboxylase” (Bioorg Med Chem Lett, 2009)

Target: Acetyl-CoA carboxylase 2 (Homo sapiens, UniProt O00763)
Test: Binding affinity to human His-tagged acetyl-CoA-carboxylase biotin carboxylase domain
Details: read-out: Kd(app)

Chain of Acetyl-CoA carboxylase 2 (O00763 whole entry, the tested form may be a part): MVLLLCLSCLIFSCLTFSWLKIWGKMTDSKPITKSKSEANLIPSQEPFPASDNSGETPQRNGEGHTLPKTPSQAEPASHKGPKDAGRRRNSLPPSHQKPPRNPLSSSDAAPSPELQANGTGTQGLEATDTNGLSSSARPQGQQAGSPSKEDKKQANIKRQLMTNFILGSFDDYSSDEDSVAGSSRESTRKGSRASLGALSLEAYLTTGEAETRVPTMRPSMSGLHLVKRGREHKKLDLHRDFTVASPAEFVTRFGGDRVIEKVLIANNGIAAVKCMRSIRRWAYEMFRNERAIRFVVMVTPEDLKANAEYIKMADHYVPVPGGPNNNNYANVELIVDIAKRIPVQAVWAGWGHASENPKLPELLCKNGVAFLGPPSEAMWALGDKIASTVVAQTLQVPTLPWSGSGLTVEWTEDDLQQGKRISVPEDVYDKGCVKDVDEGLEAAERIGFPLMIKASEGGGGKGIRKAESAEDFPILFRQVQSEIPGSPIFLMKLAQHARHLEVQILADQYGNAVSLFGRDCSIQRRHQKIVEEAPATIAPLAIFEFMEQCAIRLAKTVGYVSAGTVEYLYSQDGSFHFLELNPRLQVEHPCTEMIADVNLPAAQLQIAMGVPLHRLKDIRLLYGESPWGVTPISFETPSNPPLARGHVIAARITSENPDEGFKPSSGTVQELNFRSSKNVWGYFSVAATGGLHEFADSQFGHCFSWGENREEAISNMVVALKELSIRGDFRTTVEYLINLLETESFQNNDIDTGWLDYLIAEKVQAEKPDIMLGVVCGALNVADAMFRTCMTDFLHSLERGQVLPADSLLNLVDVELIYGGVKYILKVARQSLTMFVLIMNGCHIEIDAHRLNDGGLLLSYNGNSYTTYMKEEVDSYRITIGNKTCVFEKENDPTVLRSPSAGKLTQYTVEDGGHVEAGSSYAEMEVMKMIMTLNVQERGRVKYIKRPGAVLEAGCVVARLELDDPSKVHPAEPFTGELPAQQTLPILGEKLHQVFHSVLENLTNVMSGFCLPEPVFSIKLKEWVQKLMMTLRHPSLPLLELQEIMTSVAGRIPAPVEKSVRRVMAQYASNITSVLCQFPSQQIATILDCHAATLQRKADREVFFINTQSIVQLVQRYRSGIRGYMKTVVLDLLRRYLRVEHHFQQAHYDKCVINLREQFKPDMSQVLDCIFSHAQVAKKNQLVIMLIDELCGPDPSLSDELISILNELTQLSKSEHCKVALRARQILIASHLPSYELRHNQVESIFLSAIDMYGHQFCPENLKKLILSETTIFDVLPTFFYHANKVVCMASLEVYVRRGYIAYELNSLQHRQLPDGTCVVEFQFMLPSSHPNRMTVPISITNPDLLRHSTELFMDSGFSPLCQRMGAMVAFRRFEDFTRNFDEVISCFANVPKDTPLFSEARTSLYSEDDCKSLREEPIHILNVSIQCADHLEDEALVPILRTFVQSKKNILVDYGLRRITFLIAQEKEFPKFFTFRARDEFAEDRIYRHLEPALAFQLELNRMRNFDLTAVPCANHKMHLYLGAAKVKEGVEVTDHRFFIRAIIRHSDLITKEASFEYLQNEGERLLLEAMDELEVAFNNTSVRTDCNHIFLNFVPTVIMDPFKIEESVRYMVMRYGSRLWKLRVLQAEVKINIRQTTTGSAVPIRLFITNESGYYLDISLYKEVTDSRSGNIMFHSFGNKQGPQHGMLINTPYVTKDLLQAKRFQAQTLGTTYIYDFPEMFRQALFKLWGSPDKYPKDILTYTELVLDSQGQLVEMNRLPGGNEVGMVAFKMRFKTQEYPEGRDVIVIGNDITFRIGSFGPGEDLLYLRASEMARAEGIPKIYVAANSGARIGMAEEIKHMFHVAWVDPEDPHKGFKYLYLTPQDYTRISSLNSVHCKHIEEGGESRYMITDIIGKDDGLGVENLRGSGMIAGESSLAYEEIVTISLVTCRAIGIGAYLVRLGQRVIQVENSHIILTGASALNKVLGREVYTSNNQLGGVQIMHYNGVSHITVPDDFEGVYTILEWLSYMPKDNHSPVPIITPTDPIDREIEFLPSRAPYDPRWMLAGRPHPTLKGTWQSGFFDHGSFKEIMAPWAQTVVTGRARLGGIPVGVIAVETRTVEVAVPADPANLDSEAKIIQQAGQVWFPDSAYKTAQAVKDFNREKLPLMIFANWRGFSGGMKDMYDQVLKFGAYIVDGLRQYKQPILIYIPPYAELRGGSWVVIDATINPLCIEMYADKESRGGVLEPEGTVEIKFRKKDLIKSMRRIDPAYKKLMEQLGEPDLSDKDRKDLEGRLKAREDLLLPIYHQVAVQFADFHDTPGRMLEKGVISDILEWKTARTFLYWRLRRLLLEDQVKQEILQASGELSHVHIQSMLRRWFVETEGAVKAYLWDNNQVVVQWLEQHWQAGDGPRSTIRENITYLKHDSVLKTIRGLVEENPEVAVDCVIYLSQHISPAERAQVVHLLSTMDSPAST

Kd: 3 nM
SMILES: CO[C@H]1CCCC[C@@H](c2ccccc2)OC(=O)[C@@H](C)[C@@]2(O)O[C@H]([C@@H](C)[C@H](O)[C@H]2OC)[C@@H](C)/C=C/[C@H]1OC(=O)CCC1=[N+]2C(=Cc3c(C)cc(C)n3[B-]2(F)F)C=C1
